Assays:
[1] = test system: Caco-2 cell monolayers; experiment: Bioabsorption in the Caco cell model; format: in vitro ADME; conditions: estimated from Caco cell model data
Source text: (§1) The bioabsorption of the compounds of the formula I was examined using the Caco cell model (A. R. Hilgers et al., Caco-2 cell monolayers as a model for drug transport across the intestinal mucosa, Pharm. Res. 1990, 7, 902).
(§2) From the measured data, it can be seen that the bioabsorption of the compounds of the formula I according to the invention is considerably lower than that of compounds described in the prior art (reference structure): […]

[2] = Bioabsorption in the Caco cell model; format: in vitro ADME; conditions: human, Caco-2; Caco cell model; read-out: Apparent partition coefficient Papp (according to Lit. Hilgers)
Source text: as §1, §2

[3] = test system: Cholesterol absorption (uptake of 14C-cholesterol by the liver); experiment: Cholesterol absorption test: uptake of 14C-cholesterol by the liver after peroral test meal; format: in vivo, NMRI mice; conditions: dose at which the uptake of 14C-cholesterol by the liver is halved (50%) vs control group, mouse
Source text: Effect on Cholesterol Absorption +^3H-taurocholic Acid Excretion Using Fecal Excrement of Mice, Rats or Hamsters
NMRI mice, Wistar rats, or Golden Syrian hamsters (in groups of n=4-6) are kept in metabolic cages, where they are fed with a standard diet (Altromin, Lage (Lippe)). The afternoon prior to the administration of the radioactive tracers (^14C-cholesterol), the feed is removed and the animals are adapted to grates.
Additionally, the animals are labeled s.c. with ^3H-TCA (taurocholic acid) (for example 1 μCi/mouse up to 5 μCi/rat) 24 hours prior to the peroral administration of the test meal (^14C-cholesterol in Intralipid® 20, Pharmacia-Upjohn).
Cholesterol absorption test: 0.25 ml/mouse Intralipid ® 20 (Pharmacia-Upjohn) ((Spiked with 0.25 μCi of ^14C-cholesterol in 0.1 mg of cholesterol) are administered perorally by gavage.
Test substances were prepared separately in 0.5% methylcellulose (Sigma)/5% Solutol (BASF, Ludwigshafen) or a suitable vehicle.
The administration volume of the test substance is 0.5 ml/mouse. The test substance is administered immediately prior to the test meal (Intralipid labeled with ^14C-cholesterol) (cholesterol absorption test).
The feces are collected over a period of 24 h: fecal elimination of ^14C-cholesterol and ^3H-taurocholic acid (TCA) is determined after 24 hours.
The livers are removed and homogenized, and aliquots are incinerated in an oximate (Model 307, Packard) to determine the amount of ^14C-cholesterol which had been taken up/absorbed.
The amount of ^14C-cholesterol taken up by the liver is based on the administered dose. The ED50 values are interpolated from a dose-effect curve as the dose at of which the uptake of ^14C-cholesterol by the liver is halved (50%), based on a control group.

melting point | SMILES | ED50 (liver) [3] | also measured
150 °C | CCCCC1(CC)CS(=O)(=O)c2ccc(N(C)C)cc2C(c2cccc(NC(=O)CCCCC(=O)NCc3ccc(C4C(CCC(O)c5ccccc5)C(=O)N4c4ccc(F)cc4)cc3)c2)C1O (stereo not drawn) [II, N-[3-(3-Butyl-7-dimethylamino-3-ethyl-4-hydroxy-1,1-dioxo-2,3,4,5-tetrahydro-1H-benzo[b]thiepin-5-yl)phenyl]-N′-4-[1-(4-fluorophenyl)-3-(3-hydroxy-3-phenylpropyl)-4-oxoazetidin-2-yl]benzyl-hexanediamide] | 0.01 mg/mouse | –
120 °C | CCCCC1(CC)CS(=O)(=O)c2ccc(N(C)C)cc2C(c2cccc(NC(=O)COCCOCCOCC(=O)NCc3ccc(C4C(CCC(O)c5ccccc5)C(=O)N4c4ccc(F)cc4)cc3)c2)C1O (stereo not drawn) [VI, [2-(2-{[3-(3-Butyl-7-dimethylamino-3-ethyl-4-hydroxy-1,1-dioxo-2,3,4,5-tetrahydro-1H-benzo[b]thiepin-5-yl)-phenylcarbamoyl]methoxy}ethoxy)ethoxy]-[N-{4-[1-(4-fluorophenyl)-3-(3-hydroxy-3-phenylpropyl)-4-oxoazetidin-2-yl]benzyl}]acetamide] | – | –
116 to 125 °C | CCCCC1(CC)CS(=O)(=O)c2ccc(N(C)C)cc2C(c2cccc(NC(=O)COCCOCC(=O)NCc3ccc(N4C(=O)C(CCC(O)c5ccc(F)cc5)C4c4ccc(OC)cc4)cc3)c2)C1O (stereo not drawn) [XXX, 2-(2-{[3-(3-Butyl-7-dimethylamino-3-ethyl-4-hydroxy-1,1-dioxo-2,3,4,5-tetrahydro-1H-benzo[b]thiepin-5-yl)phenylcarbamoyl]methoxy}ethoxy)-N-{4-[3-[3-(4-fluorophenyl)-3-hydroxypropyl]-2-(4-methoxyphenyl)-4-oxoazetidin-1-yl]benzyl}acetamide] | – | –

The next lines start with the compound.

SMILES | melting point | ED50 (liver) [3] | also measured
CCCCC1(CC)CS(=O)(=O)c2ccc(N(C)C)cc2C(c2cccc(NC(=O)CCCCCCCCCCC(=O)NCc3cccc(C4C(CCC(O)c5ccc(F)cc5)C(=O)N4c4ccc(F)cc4)c3)c2)[C@H]1O.O=C(O)C(F)(F)F (stereo in doubt) [Example XII, (3-Butyl-3-ethyl-5-{3-[11-(3-{1-(4-fluorophenyl)-3-[3-(4-fluorophenyl)-3-hydroxypropyl]-4-oxoazetidin-2-yl}benzylcarbamoyl)undecanoylamino]phenyl}-4-hydroxy-1,1-dioxo-2,3,4,5-tetrahydro-1H-benzo[b]thiepin-7-yl)dimethylammonium Trifluoro-acetate] | – | – | Estimated human bioabsorption [1]: <1%; Papp [2]: 0.00367 ×10⁻⁶ cm/s
CCCCC1(CC)CS(=O)(=O)c2ccc(N(C)C)cc2C(c2cccc(NC(=O)CCCCC(=O)NCc3ccc(C4C(CCC(O)c5ccc(F)cc5)C(=O)N4c4ccc(F)cc4)cc3)c2)C1O (stereo not drawn) [III, N-[3-(3-Butyl-7-dimethylamino-3-ethyl-4-hydroxy-1,1-dioxo-2,3,4,5-tetrahydro-1H-benzo[b]thiepin-5-yl)phenyl]-N′-4-{1-(4-fluorophenyl)-3-[3-(4-fluorophenyl)-3-hydroxypropyl]-4-oxo-azetidin-2-yl}benzyl-hexanediamide] | – | 0.03 mg/mouse | –
O=C1[C@H](CC[C@H](O)c2ccc(F)cc2)[C@@H](c2ccc(O)cc2)N1c1ccc(F)cc1 [Reference structure, Ezetimibe, reference compound] | – | – | Estimated human bioabsorption [1]: 100%; Papp [2]: 4.88 ×10⁻⁶ cm/s
CCCCC1(CC)CS(=O)(=O)c2ccc(N(C)C)cc2C(c2cccc(NC(=O)COCCOCC(=O)NCc3cccc(C4C(CCC(O)c5ccc(F)cc5)C(=O)N4c4ccc(F)cc4)c3)c2)C1O.O=C(O)C(F)(F)F (stereo not drawn) [VIII, (3-Butyl-3-ethyl-5-[3-(2-{2-[(3-{1-(4-fluorophenyl)-3-[3-(4-fluorophenyl)-3-hydroxypropyl]-4-oxoazetidin-2-yl}benzylcarbamoyl)methoxy]ethoxy}acetylamino)phenyl]-4-hydroxy-1,1-dioxo-2,3,4,5-tetrahydro-1H-benzo[b]thiepin-7-yl)dimethylammonium Trifluoroacetate] | – | 0.003 mg/mouse | –
CCCCC1(CC)CS(=O)(=O)c2ccc(N(C)C)cc2C(c2cccc(NC(=O)CCCCCCCNCc3ccc(C4C(CCC(O)c5ccc(F)cc5)C(=O)N4c4ccc(F)cc4)cc3)c2)C1O.O=C(O)C(F)(F)F (stereo not drawn) [XXV] | – | 0.01 mg/mouse | –
CCCCC1(CC)CS(=O)(=O)c2ccc(N(C)C)cc2C(c2cccc(NC(=O)COCCOCCOCC(=O)NCc3ccc(N4C(=O)C(CCC(O)c5ccc(F)cc5)C4c4ccc(OC)cc4)cc3)c2)C1O (stereo not drawn) [XXXI, N-[3-(3-Butyl-7-dimethylamino-3-ethyl-4-hydroxy-1,1-dioxo-2,3,4,5-tetrahydro-1H-benzo[b]thiepin-5-yl)phenyl]-2-{2-[2-({4-[3-[3-(4-fluorophenyl)-3-hydroxypropyl]-2-(4-methoxyphenyl)-4-oxoazetidin-1-yl]benzylcarbamoyl}methoxy)ethoxy]ethoxy}acetamide] | – | 0.1 mg/mouse | –

— US6498156B2, “Diphenylazetidinone derivatives, process for their preparation, medicaments comprising these compounds and their use” (Aventis Pharma Deutschland GmbH, priority 2000, dated 2002)
